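The compound was tested at five concentrations on cells cultured in 96-well plates, with a 48-hour exposure period. At the TGI there is no net growth.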
How the values were obtained:
Assay in all cases: NCI tumour cell line growth inhibition, 48 h
[1] = test system: HOP-62 NSCLC
[2] = test system: LXFL 529 NSCLC
[3] = test system: M14 melanoma
[4] = test system: LOX IMVI melanoma
[5] = test system: HOP-18 NSCLC
[6] = test system: NCI-H460 lung
[7] = test system: MALME-3M melanoma
[8] = test system: DMS 114 small cell lung
[9] = test system: RXF-631 renal
[10] = test system: UACC-257 melanoma
[11] = test system: HOP-92 NSCLC
[12] = test system: K-562 leukemia
[13] = test system: UO-31 renal
[14] = test system: SW-620 colon
[15] = test system: HT29 colon
[16] = test system: SK-MEL-5 melanoma
[17] = test system: HCC-2998 colon
[18] = test system: RXF 393 renal
[19] = test system: UACC-62 melanoma
[20] = test system: NCI-H23 lung
[21] = test system: M19-MEL melanoma
[22] = test system: MOLT-4 leukemia
[23] = test system: SK-MEL-28 melanoma
[24] = test system: HL-60(TB) leukemia
[25] = test system: DLD-1 colon
[26] = test system: TK-10 renal
[27] = test system: U251 CNS
[28] = test system: OVCAR-4 ovarian
[29] = test system: HCT-116 colon
[30] = test system: SK-MEL-2 melanoma
[31] = test system: EKVX NSCLC
[32] = test system: IGROV1 ovarian
[33] = test system: KM12 colon
[34] = test system: OVCAR-8 ovarian
[35] = test system: KM20L2 colon
[36] = test system: ACHN renal
[37] = test system: OVCAR-3 ovarian
[38] = test system: SNB-19 CNS
[39] = test system: CAKI-1 renal
[40] = test system: SF-268 CNS
[41] = test system: SF-295 CNS
[42] = test system: NCI-H522 lung
[43] = test system: OVCAR-5 ovarian
[44] = test system: SN12C renal
[45] = test system: COLO 205 colon
[46] = test system: NCI-H226 lung
[47] = test system: A549 NSCLC
[48] = test system: HCT-15 colon
[49] = test system: XF 498 CNS
[50] = test system: 786-0 renal
[51] = test system: SK-OV-3 ovarian
[52] = test system: SF-539 CNS
[53] = test system: DMS 273 small cell lung
[54] = test system: SR leukemia
[55] = test system: CCRF-CEM leukemia
[56] = test system: SNB-75 CNS
[57] = test system: A498 renal
[58] = test system: SNB-78 CNS

Measured: TGI

COC(=O)C(C)(C)N=CN(C)C
> 100 µM: all assays above
